Measured values: patent publication US20240316061A1, “BET INHIBITORS FOR TREATING PAB1 DEFICIENT CANCER” (INSTITUT CURIE, priority 2021, published 2024)

Key:
Assay type in all cases: cell-based
[1] = test system: isogenic HAP1 cells (Wild-type or BAP1 knockout); experiment: Proliferation of isogenic HAP1 cells exposed to BI894999, CellTiter-Glo; conditions: increasing concentration for 7 days; FIG. 3
Experimental: Proliferation of isogenic HAP1 cells (Wild-type or BAP1 knockout) exposed to increasing concentration of the BET inhibitor BI894999 for 7 days. Proliferation was measured using the CellTiter-Glo Luminescent Cell Viability assay.

[2] = test system: uveal melanoma derived cells wild type for BAP1 (MP41 and MM66) or BAP1 inactivated (MP46 and MP38); experiment: Proliferation of uveal melanoma derived cells exposed to OTX015, MTT assay; conditions: increasing concentration for 12 days; MP46, MP38 vs MP41, MM66; FIG. 2
Experimental: Proliferation of uveal melanoma derived cells either wild type for BAP1 (MP41 and MM66) or for which BAP1 is inactivated (MP46 and MP38). Cells were exposed to increasing concentration of OTX015 for 12 days, Proliferation was measured using the MTT assay.

[3] = test system: human BAP1 cells either wild type or BAP1 knockout; experiment: Proliferation of BAP1 wild type or BAP1 knockout cells exposed to OTX015, Cell Titer Glow; conditions: increasing dose for 12 days, compound renewed after 6 days; FIG. 1
Experimental: Proliferation of human BAP1 cells either wild type or BAP1 knockout (generated by genome editing) exposed to increasing dose of OTX015 for 12 days Cells were grown in IMDM and compound was renewed after 6 days. Cell viability was measured using Cell Titer Glow.

Row | SMILES | Dose response (proliferation) in BAP1 knockout HAP1 cells compared to HAP1 cells expressing BAP1 [1] | Dose response (proliferation) in BAP1 mutated UM derived cells compared to UM cells expressing BAP1 [2] | Dose response (proliferation) of BAP1 KO cells compared to BAP1 WT cells [3]
1 | CNc1nc(-c2nc3ccc(N4CCN(C)CC4)cc3n2Cc2ccccc2)cn2c(C)nnc12 [BI894999] | enhanced dose response |  | 
2 | Cc1sc2c(c1C)C(c1ccc(Cl)cc1)=N[C@@H](CC(=O)Nc1ccc(O)cc1)c1nnc(C)n1-2 [OTX015] |  | enhanced dose response | highest dose response
